From PubChem BioAssay AID192 (DTP/NCI, 2004)
Values joined by “and” are separate entries in the source; they are usually repeats but may differ in a detail not shown here. Equal entries are not always repeated. Toxic doses and inconclusive results are not listed. Rule for the calls: active = survival T/C of 150% or more; inactive = T/C below 125% in these data.

Tested on: BDF1 mice, B16 melanoma ip, median survival T/C
Assay: NCI In Vivo Anticancer Drug Screen. Data for tumor model B16 Melanoma (intraperitoneal) in B6D2F1 (BDF1) mice
Conditions: endpoint: median survival time, higher = longer survival
Procedure, shortened: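 Antitumor activity is assessed in mice bearing a transplanted tumor, with survival or tumor size compared against vehicle-dosed controls and expressed as T/C.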

[1] = dose: 25.0 mg/kg/injection, schedule: Q01DX009 (ip), vehicle: Klucel (hydroxypropylcellulose) (HPC)
[2] = dose: 100.0 mg/kg/injection, schedule: Q01DX009 (ip), vehicle: Klucel (hydroxypropylcellulose) (HPC)
[3] = dose: 6.25 mg/kg/injection, schedule: Q01DX009 (ip), vehicle: saline with Tween-80
[4] = dose: 12.5 mg/kg/injection, schedule: Q01DX009 (ip), vehicle: saline with Tween-80
[5] = dose: 25.0 mg/kg/injection, schedule: Q01DX009 (ip), vehicle: saline with Tween-80
[6] = dose: 6.25 mg/kg/injection, schedule: Q01DX009 (ip), vehicle: saline
[7] = dose: 12.5 mg/kg/injection, schedule: Q01DX009 (ip), vehicle: saline
[8] = dose: 50.0 mg/kg/injection, schedule: Q01DX009 (ip), vehicle: Klucel (hydroxypropylcellulose) (HPC)
[9] = dose: 200.0 mg/kg/injection, schedule: Q01DX009 (ip), vehicle: Klucel (hydroxypropylcellulose) (HPC)
[10] = dose: 12.5 mg/kg/injection, schedule: Q01DX009 (ip), vehicle: Klucel (hydroxypropylcellulose) (HPC)
[11] = dose: 6.25 mg/kg/injection, schedule: Q04DX003 (ip), vehicle: saline
[12] = dose: 12.5 mg/kg/injection, schedule: Q04DX003 (ip), vehicle: saline
[13] = dose: 50.0 mg/kg/injection, schedule: Q01DX009 (ip), vehicle: saline with Tween-80
[14] = dose: 200.0 mg/kg/injection, schedule: Q01DX009 (ip), vehicle: saline with Tween-80
[15] = dose: 400.0 mg/kg/injection, schedule: Q01DX009 (ip), vehicle: Klucel (hydroxypropylcellulose) (HPC)
[16] = dose: 100.0 mg/kg/injection, schedule: Q01DX009 (ip), vehicle: saline with Tween-80

Measured: T/C

COc1ccc(NC(=O)Nc2c(C)cc(C)cc2C)cc1
inactive: dose: 100.0 mg/kg/injection, schedule: Q01DX009 (ip), vehicle: gum acacia 96 % of control | dose: 200.0 mg/kg/injection, schedule: Q01DX009 (ip), vehicle: gum acacia 90 % of control | dose: 400.0 mg/kg/injection, schedule: Q01DX009 (ip), vehicle: gum acacia 101 % of control

O=[N+]([O-])c1ccc(N2CCC(CCCC3CCN(c4ccc([N+](=O)[O-])cc4[N+](=O)[O-])CC3)CC2)c([N+](=O)[O-])c1
inactive: [1] 106 % of control | [2] 112 % of control

CC(C)(C)CC(C)(C)c1ccc(O)c(O)c1
inactive: [3] 98 % of control | [4] 90 % of control | [5] 88 % of control and 93 % of control

O=C(O)C(=O)O.O=C([O-])C(=O)[O-].O=C([O-])C(=O)[O-].[NH-]CC[NH-].[NH-]CC[NH-].[NH-]CC[NH-].[Ru+4].[Ru+5]
inactive: dose: 12.5 mg/kg/injection, schedule: Q04DX003 (ip), vehicle: water 112 % of control | dose: 25.0 mg/kg/injection, schedule: Q04DX003 (ip), vehicle: water 107 % of control

CC[N](CC)[Ge]([CH2]C)[CH2]C.CC[N](CC)[Ge]([CH2]C)[CH2]C
inactive: [6] 100 % of control | [7] 99 % of control | dose: 25.0 mg/kg/injection, schedule: Q01DX009 (ip), vehicle: saline 88 % of control | dose: 50.0 mg/kg/injection, schedule: Q01DX009 (ip), vehicle: saline 86 % of control

O=C(O)[C@@H]1[C@H]2C[C@H]3c4[nH]c5ccccc5c4CCN3C[C@@H]2CC[C@@H]1O
inactive: [1] 89 % of control | [8] 88 % of control | [2] 97 % of control | [9] 92 % of control

CC(C)N=C(N)/N=C(\N)Nc1ccc2ccc3ccccc3c2c1
inactive: dose: 6.25 mg/kg/injection, schedule: Q01DX009 (ip), vehicle: Klucel (hydroxypropylcellulose) (HPC) 112 % of control | [10] 103 % of control | [1] 87 % of control

CC(=O)OC(CC(=O)CC(O)(C(F)(F)F)C(F)(F)F)(C(F)(F)F)C(F)(F)F
inactive: dose: 3.13 mg/kg/injection, schedule: Q01DX009 (ip), vehicle: saline 102 % of control | dose: 3.13 mg/kg/injection, schedule: Q04DX003 (ip), vehicle: saline 97 % of control | [6] 107 % of control | [11] 100 % of control | [7] 92 % of control | [12] 100 % of control

OCN(CO)c1nc(N(CO)CO)nc(N(CO)CO)n1
inactive: [3] 97 % of control | [4] 100 % of control | [5] 94 % of control | [13] 92 % of control | [14] 90 % of control

Nc1nc(=S)c2[nH]c(N=Nc3ccc(S(=O)(=O)O)cc3)nc2[nH]1
inactive: [11] 107 % of control | [12] 109 % of control

Brc1nnnn1-c1ccccc1
inactive: [2] 90 % of control | [9] 93 % of control

CCN1C(=O)NC(=O)/C(=C/N(CCO)CCO)C1=O
inactive: [2] 111 % of control | [9] 107 % of control | [15] 96 % of control

COC(=O)c1ccc(C(=O)OC)cc1
inactive: dose: 0.05 mg/kg/injection, schedule: Q04DX003 (ip), vehicle: water 103 % of control | dose: 0.1 mg/kg/injection, schedule: Q04DX003 (ip), vehicle: water 96 % of control | dose: 0.2 mg/kg/injection, schedule: Q04DX003 (ip), vehicle: water 106 % of control | dose: 0.4 mg/kg/injection, schedule: Q04DX003 (ip), vehicle: water 113 % of control

CCCCNC(=O)Nc1ccc(CC)cc1
inactive: [2] 100 % of control | [9] 91 % of control

COc1ccc(-c2ccc(OC)c(OC)c2OC)c(N)c1
inactive: [16] 107 % of control | [14] 107 % of control | dose: 400.0 mg/kg/injection, schedule: Q01DX009 (ip), vehicle: saline with Tween-80 94 % of control

CN(C)CCC[N+]1([O-])c2ccccc2CCc2ccccc21
inactive: dose: 4.68 mg/kg/injection, schedule: Q01DX009 (ip), vehicle: saline 97 % of control | dose: 9.37 mg/kg/injection, schedule: Q01DX009 (ip), vehicle: saline 118 % of control | dose: 18.75 mg/kg/injection, schedule: Q01DX009 (ip), vehicle: saline 95 % of control | dose: 37.5 mg/kg/injection, schedule: Q01DX009 (ip), vehicle: saline 100 % of control | dose: 75.0 mg/kg/injection, schedule: Q04DX003 (ip), vehicle: saline 96 % of control

O=C1CSC(=S)N1c1ccco1
inactive: [13] 92 % of control | [16] 90 % of control | [14] 87 % of control

N[C@H](C(=O)O)[C@H]1ON=C(Cl)[C@@H]1O
inactive: dose: 4.0 mg/kg/injection, schedule: Q01DX009 (ip), vehicle: saline 90 % of control | dose: 8.0 mg/kg/injection, schedule: Q01DX009 (ip), vehicle: saline 94 % of control | dose: 16.0 mg/kg/injection, schedule: Q01DX009 (ip), vehicle: saline 103 % of control | dose: 32.0 mg/kg/injection, schedule: Q01DX009 (ip), vehicle: saline 106 % of control | dose: 64.0 mg/kg/injection, schedule: Q01DX009 (ip), vehicle: saline 102 % of control and 115 % of control | dose: 128.0 mg/kg/injection, schedule: Q01DX009 (ip), vehicle: saline 101 % of control | dose: 256.0 mg/kg/injection, schedule: Q01DX009 (ip), vehicle: saline 107 % of control | dose: 512.0 mg/kg/injection, schedule: Q01DX009 (ip), vehicle: saline 109 % of control

CCCCn1cnc2c(SC)ncnc21
inactive: [5] 90 % of control and 115 % of control | [13] 87 % of control and 111 % of control | [16] 92 % of control and 115 % of control

COc1cc2c[n+](C)c3c(c2cc1OC)Cc1cc2c(cc1-3)OCO2
inactive: [16] 120 % of control

Cc1ccc(NS(=O)(=O)c2ccc(Cl)cc2)cc1Cl
inactive: [5] 99 % of control | [13] 99 % of control | [16] 95 % of control

CCCCOC(=O)C(C)OC(=O)CCC (stereo not drawn)
inactive: [1] 112 % of control | [8] 108 % of control | [2] 104 % of control | [9] 122 % of control

c1ccc(COc2ccc(Nc3ccccc3)cc2)cc1
inactive: [2] 106 % of control | [9] 109 % of control | [15] 112 % of control

Cc1ccc(NC(=O)Nc2cccc3ccccc23)cc1Cl
inactive: [10] 94 % of control | [1] 88 % of control

Nc1ccc2cc(S(=O)(=O)O)cc(O)c2c1N=Nc1ccc(F)cc1
inactive: dose: 100.0 mg/kg/injection, schedule: Q01DX009 (ip), vehicle: saline 87 % of control

NC(CO)C(O)c1ccc([N+](=O)[O-])cc1 (stereo not drawn)
inactive: dose: 100.0 mg/kg/injection, schedule: Q04DX003 (ip), vehicle: Klucel (hydroxypropylcellulose) (HPC) 97 % of control | dose: 200.0 mg/kg/injection, schedule: Q04DX003 (ip), vehicle: Klucel (hydroxypropylcellulose) (HPC) 95 % of control | dose: 400.0 mg/kg/injection, schedule: Q04DX003 (ip), vehicle: Klucel (hydroxypropylcellulose) (HPC) 86 % of control

Nc1ccc(Cl)cc1N
inactive: [4] 104 % of control | [5] 105 % of control | [13] 102 % of control | [16] 99 % of control
